Test results reported in patent US12350259B2, “Methods of treating migraine” (Allergan Pharmaceuticals International Limited, priority 2021, dated 2025).
Read-outs that look alike come from different tables or passages of the source.

Tests used:
[1] = Atogepant-itraconazole interaction study: safety and tolerability; type: in vivo, human; details: itraconazole alone
From the text: The primary objective of this study was to assess the effects of multiple dose itraconazole on the pharmacokinetics of a single dose of atogepant. The primary endpoints were PK parameters of atogepant derived from plasma concentrations. The secondary objectives of the study were to assess the safety and tolerability of atogepant and itraconazole given alone and in combination, and to establish the correlation between concentrations of atogepant in dried blood sample (DBS) (obtained via finger stick) and plasma. The secondary endpoints included AEs, clinical laboratory parameters, vital signs, ECG, and physical examination, and correlation of concentrations of atogepant in DBS and plasma. Subjects who satisfied the inclusion and exclusion criteria were assigned to a single fixed-treatment sequence in which they received Treatment A followed by Treatment B; there was a 7-day washout period between treatments. • Treatment A: Single oral 60 mg dose of atogepant (tablet) under fasted conditions on Day 1 • Treatment B • Days 8-14: Itraconazole 200 mg (tablet) orally once daily under fed conditions. • Day 15: Itraconazole 200 mg coadministered with atogepant 60 mg (tablet) under fasted conditions. • Days 16 to 17: Itraconazole 200 mg (tablet) once daily under fed conditions.

[2] = Atogepant-quinidine gluconate interaction study: safety; type: in vivo, human; details: during quinidine gluconate administration; 33 enrolled
From the text: Atogepant PK parameters calculated were peak plasma concentration (Cmax); time to Cmax (tmax); and area under plasma concentration—time curve from time 0 to time t (AUC0-t) and infinity (AUC0-∞). […] Safety assessments included clinical laboratory values, vital signs, electrocardiograms, and […] adverse events (TEAEs).

[3] = Atogepant-topiramate interaction study, cohort 2: topiramate steady-state PK; type: in vivo, human; details: for AUC / Cmax: both sexes, human, plasma
Procedure: An open-label, single-center, multiple-dose 2-cohort, phase 1 trial was carried out to assess the potential of a PK DDI between atogepant and topiramate in healthy adult participants. Eligible participants were enrolled either in cohort 1 to evaluate the effect of topiramate 100 mg twice daily on the PK of atogepant […] once daily or in cohort 2 to evaluate the effect of atogepant 60 mg once daily on the PK of topiramate 100 mg twice daily. Participants in cohort 1 received atogepant alone on days 1-7 and atogepant plus topiramate on days 8-17. Participants in cohort 2 received topiramate alone on days 1-10 and topiramate plus atogepant on days 11-17.
The duration of the study was 25 days (±2 days), which included day −1 through the follow-up visit and excluded the screening period. The screening period was up to 21 days before day 1 and the intervention period was a total of 19 days, at which point the end of dosing visit was conducted. Cerebrospinal fluid (CSF) samples for measurement of atogepant concentration were collected via lumbar puncture in a subset of consenting participants in cohort 1. CSF samples were collected once from individual participants in the CSF collection subset at 2 or 6 hours after the morning dose on day 6 for cohort 1. Clinical laboratory tests were performed at the follow-up visit, which was conducted on day 24 (7 [±2] days after the last dose of study medication.
Participants were excluded if they had clinically significant abnormal electrocardiogram (ECG) results or QT prolongation (QTcF ≥450 msec for males, ≥470 for females), or any clinical condition or previous surgery that may affect the absorption, distribution, biotransformation, or excretion of atogepant or topiramate.
The primary endpoints were area under the plasma concentration-time curve during dosing interval at steady state (AUC0-tau,ss) and maximum plasma drug concentration at steady state (Cmax,ss) of atogepant and topiramate when coadministered and when administered alone. Additional PK parameters included time of maximum plasma drug concentration at steady state (Tmax,ss), average plasma drug concentration at steady state (Cavg,ss), and minimum plasma drug concentration at steady state (Cmin,ss) of topiramate and atogepant when coadministered and when administered alone.

[4] = Atogepant-topiramate interaction study: safety and tolerability; type: in vivo, human
[5] = topiramate; cited from earlier work
[6] = topiramate 100 mg BID + atogepant 60 mg QD, day 17
[7] = topiramate 100 mg BID alone, day 10
[8] = with atogepant coadministration

CCC(C)n1ncn(-c2ccc(N3CCN(c4ccc(OCC5COC(Cn6cncn6)(c6ccc(Cl)cc6Cl)O5)cc4)CC3)cc2)c1=O (stereo not drawn) [itraconazole, reference compound]
subjects experiencing constipation (TEAE) [1]: 1 subject | subjects experiencing headache (TEAE) [1]: 2 subjects

C=C[C@H]1C[N@@]2CC[C@H]1C[C@@H]2[C@@H](O)c1ccnc2ccc(OC)cc12 [quinidine gluconate, reference compound]
participants discontinued because of TEAEs (all electrocardiogram QT prolongation) [2]: 10

CC1(C)O[C@@H]2[C@@H](CO[C@@]3(COS(N)(=O)=O)OC(C)(C)O[C@@H]23)O1 [topiramate]
AUC ([3]; 100 mg, Topiramate Alone, read-out: AUC0-tau,ss Geometric LSM): 74400 ng·h/mL | Cmax ([3]; 100 mg, Topiramate Alone, read-out: Cmax,ss Geometric LSM): 7500 ng/mL | AUC ([3]; 100 mg, topiramate 100 mg BID alone, day 10, read-out: AUC0-tau,ss): 76500 ng·h/mL | Cmax ([3]; 100 mg, topiramate 100 mg BID alone, day 10, read-out: Cmax,ss): 7700 ng/mL | AUC ([3]; Topiramate and Atogepant, read-out: AUC0-tau,ss Geometric LSM): 70300 ng·h/mL | Cmax ([3]; Topiramate and Atogepant, read-out: Cmax,ss Geometric LSM): 7000 ng/mL | AUC ([3]; topiramate 100 mg BID + atogepant 60 mg QD, day 17, read-out: AUC0-tau,ss): 72600 ng·h/mL | Cmax ([3]; topiramate 100 mg BID + atogepant 60 mg QD, day 17, read-out: Cmax,ss): 7300 ng/mL | delay of median Tmax,ss of topiramate ([3]; coadministered with atogepant): 0.5 h | Cavg,ss [3, 6]: 6000 ng/mL | Cmin,ss [3, 6]: 4700 ng/mL | Tmax,ss (median) [3, 6]: 2.0 h | Cavg,ss [3, 7]: 6400 ng/mL | Cmin,ss [3, 7]: 5200 ng/mL | Tmax,ss (median) [3, 7]: 1.5 h | reduction of topiramate AUC0-tau,ss [3, 8]: 5% | reduction of topiramate Cmax,ss [3, 8]: 6% | Deaths, % ([4]; cohort 2, topiramate + atogepant (n = 24)): (0) % | Deaths, % ([4]; cohort 2, topiramate alone (n = 25)): (0) % | TEAEs leading to discontinuation, % ([4]; human, in vivo): (8.0) % | TESAEs, % ([4]; human, in vivo): (0) % | Treatment-related TEAEs, % ([4]; human, in vivo): (52.0) % | Treatment-related TESAEs, % ([4]; human, in vivo): (0) % | constipation reported ([4]; human, in vivo): 2 participants | nausea reported ([4]; human, in vivo): 3 participants | TEAEs, % ([4]; human, in vivo, 10 days): (64.0) % | elimination half-life [5]: approximately 21 hours
